Results published in patent US5059679A, “Method of selectively sulfating peptides” (Shin-Etsu CHemical Co., Ltd., priority 1988, dated 1991).
Non-standard residues stand in square brackets, D forms with d. Residues, ends and D or L forms follow the SMILES beside them. sY = N[C@@H](Cc1ccc(OS(=O)(=O)O)cc1)C(=O)O

Tests used:
[1] = test system: protein release from pancreas; experiment: Bioassay in anesthetized dogs: protein release from pancreas (Lowry method); assay type: in vivo, mongrel dogs
Protocol: The synthetic hCCK-33 was concurrently subjected to the bioassay with synthetic hCCK-8 to determine the activity. The bioassay was carried out by measuring the blood flow in the pancreas capillary vessel and the protein release from pancreas using a group of four mongrel dogs anesthesized with pentobarbital. The blood flow in the pancreas capillary vessel was measured using a laser-Doppler perfusion monitor and the protein concentration in the pancreas was determined according to the method of O. H. Lowry, N. J. Rosebrough, A. L. Farr and R. J. Randall, J. Biol. Chem. 193, 265 (1951). Bolus injections of 1.0, 3.125, 6.25, 12.5, 25, 50, 100 and 200 picomoles per kg body weight of the synthetic hCCK-33 and CCK-8 were given through a femoral vein catheter each at an interval of 60 minutes. […] The increasing effect could be noted even with the lowest dose of 3.125 picomoles/kg and the highest effect was obtained with the dose of 200 picomoles/kg. The activity of the synthetic hCCK-33 was 92% of that of the synthetic CCK-8 on the molar basis in respect of the effects on the blood flow in the pancreas capillary vessel and the protein release from pancreas. […] Since the ratio of the activity of the unsulfated hCCK-33 to the activity of CCK-8, taken as unity on the molar basis, was 0.074 in the aforementioned assay with dogs, it was concluded that an important role is played by the sulfated sites in the molecules having influences on the in vivo activity of CCKs. FIG. 6 illustrates the increase in the protein release from pancreas of an anesthetized dog in response to these 3 kinds of CCK-peptides.

[2] = Activity compared with swine CCK-33 (test not specified); conditions: conclusion drawn through CCK-8
Protocol: Bolus injections of 1.0, 3.125, 6.25, 12.5, 25, 50, 100 and 200 picomoles per kg body weight of the synthetic hCCK-33 and CCK-8 were given through a femoral vein catheter each at an interval of 60 minutes. […] The increasing effect could be noted even with the lowest dose of 3.125 picomoles/kg and the highest effect was obtained with the dose of 200 picomoles/kg. The activity of the synthetic hCCK-33 was 92% of that of the synthetic CCK-8 on the molar basis in respect of the effects on the blood flow in the pancreas capillary vessel and the protein release from pancreas. […] Since the ratio of the activity of the unsulfated hCCK-33 to the activity of CCK-8, taken as unity on the molar basis, was 0.074 in the aforementioned assay with dogs, it was concluded that an important role is played by the sulfated sites in the molecules having influences on the in vivo activity of CCKs.

[3] = test system: blood flow in the pancreas capillary vessel; experiment: Bioassay in anesthetized dogs: blood flow in the pancreas capillary vessel (laser-Doppler perfusion monitor); assay type: in vivo, mongrel dogs
Protocol: The synthetic hCCK-33 was concurrently subjected to the bioassay with synthetic hCCK-8 to determine the activity. The bioassay was carried out by measuring the blood flow in the pancreas capillary vessel and the protein release from pancreas using a group of four mongrel dogs anesthesized with pentobarbital. The blood flow in the pancreas capillary vessel was measured using a laser-Doppler perfusion monitor and the protein concentration in the pancreas was determined according to the method of O. H. Lowry, N. J. Rosebrough, A. L. Farr and R. J. Randall, J. Biol. Chem. 193, 265 (1951). Bolus injections of 1.0, 3.125, 6.25, 12.5, 25, 50, 100 and 200 picomoles per kg body weight of the synthetic hCCK-33 and CCK-8 were given through a femoral vein catheter each at an interval of 60 minutes. […] The increasing effect could be noted even with the lowest dose of 3.125 picomoles/kg and the highest effect was obtained with the dose of 200 picomoles/kg. […] The color intensity by the ninhydrin reaction was determined using a Shimadzu Dual Wavelength TLC Scanner Model CS-900. […] The blood flow in pancreas capillary vessel was monitored using a laser-Doppler perfusion monitor (Model LD 5000 manufactured by Seattle Model Pacific Co., Wash., U.S.A.).

[4] = test system: gastric juice, pepsin release and pancreas secretion; experiment: Gastric juice, pepsin release and pancreas secretion in living rats; assay type: in vivo; conditions: living samples of rats
excised gastric tissues = experiment: Stimulation of pepsinogen secretion from excised gastric tissues of guinea pigs; assay type: cell-based
[5] = bolus injection through femoral vein catheter, 1.0-200 picomoles per kg
[6] = bolus injections 1.0-200 picomoles per kg

CC[C@H](C)[C@H](NC(=O)[C@H](CCCNC(=N)N)NC(=O)[C@H](Cc1c[nH]cn1)NC(=O)[C@H](CO)NC(=O)[C@@H]1CCCN1C(=O)[C@H](CC(=O)O)NC(=O)[C@H](CC(C)C)NC(=O)[C@H](CC(N)=O)NC(=O)[C@H](CCC(N)=O)NC(=O)[C@H](CC(C)C)NC(=O)[C@H](CC(N)=O)NC(=O)[C@H](CCCCN)NC(=O)[C@@H](NC(=O)[C@@H](NC(=O)[C@H](CO)NC(=O)[C@H](CCSC)NC(=O)[C@H](CCCNC(=N)N)NC(=O)CNC(=O)[C@H](CO)NC(=O)[C@@H]1CCCN1C(=O)[C@H](C)NC(=O)[C@@H](N)CCCCN)[C@@H](C)CC)C(C)C)C(=O)N[C@@H](CO)C(=O)N[C@@H](CC(=O)O)C(=O)N[C@@H](CCCNC(=N)N)C(=O)N[C@@H](CC(=O)O)C(=O)N[C@@H](Cc1ccc(OS(=O)(=O)O)cc1)C(=O)N[C@@H](CCSC)C(=O)NCC(=O)N[C@@H](Cc1c[nH]c2ccccc12)C(=O)N[C@@H](CCSC)C(=O)N[C@@H](CC(=O)O)C(=O)N[C@@H](Cc1ccccc1)C(N)=O [synthetic hCCK-33] (H-KAPSGRMSIVKNLQNLDPSHRISDRD[sY]MGWMDF-NH2)
dose giving the highest effect ([1]; bolus injection): 200 picomoles/kg | lowest dose at which the increasing effect could be noted ([1]; bolus injection): 3.125 picomoles/kg | activity relative to synthetic CCK-8 on the molar basis, protein release from pancreas [1, 5]: 92% | protein release from pancreas, dose dependence [1, 6]: increased in parallel with the dose | activity compared with natural swine CCK-33 [2]: comparable with or even higher than | activity relative to synthetic CCK-8 on the molar basis, blood flow in the pancreas capillary vessel [3, 5]: 92% | pancreas blood flow, dose dependence [3, 6]: increased in parallel with the dose | activity relative to CCK-8 on the molar basis, gastric juice, pepsin release and pancreas secretion [4]: about two to three times more active than the CCK-8 | activity relative to CCK-8 on the molar basis, stimulation of pepsinogen secretion (excised gastric tissues): about the same as the CCK-8
